According to US11485744B2, “High penetration prodrug compositions of antimicrobials and antimicrobial-related compounds” (priority 2009, dated 2022):

What was measured:
E. cloacae = test: MIC against E. cloacae; assay type: cell-based; details: Enterobacter cloacae; Table 6b; combinations antibiotic/inhibitor
K. pneumonlae = test: MIC against K. pneumonlae; assay type: cell-based; details: Table 6b; combinations antibiotic/inhibitor
B. fragilis = test: MIC against B. fragilis; assay type: cell-based; details: Bacteroides fragilis; Table 6b; combinations antibiotic/inhibitor
[1] = In vitro penetration across isolated human skin in modified Franz cells; details: Table 1a; isolated human skin, Franz cells, 10% in 0.2 M phosphate buffer pH 7.4, n=5

MIC (E. cloacae): 5 µg/mL
MIC (K. pneumonlae): 0.3 µg/mL
MIC (B. fragilis): 68 µg/mL
In vitro Penetration Rate (apparent flux), Parent compounds [1]: <0.015 mg/cm^2/h
SMILES: CC1(C)S[C@@H]2[C@H](NC(=O)[C@H](N)c3ccccc3)C(=O)N2[C@H]1C(=O)O [Ampicillin]
